Measurements reported in patent US7662851B2, “Use of specific cyklolignans” (Axelar AB, priority 2001, dated 2010).
Where two headings read alike, the source gives them in different places.

Assays:
[1] = target: T1, epidermal growth factor receptor (EGFR) (Homo sapiens, UniProt P00533); experiment: Tyrosine phosphorylation of EGFR in intact FM55 melanoma cells; format: cell-based; settings: 0.05 μM, 1 h
T1 construct: endogenous in cells; host or cells: FM55 melanoma cells
Protocol: Cells were cultured to subconfluency in 6-cm plates, and then fresh medium containing 10% FBS and the desired compounds were added for 1 h. The cells were then lyzed and subjected to immunoprecipitation using specific antibodies. Immunoprecipitates were resolved by sodium dodecyl sulphate polyacrylamide gel electrophoresis (SDS-PAGE) and transferred to nitro-cellulose membranes and incubated with anti-phosphotyrosine antibody. Antibodies to actin (in cell extract) or IGF-1R beta subunit were used as loading controls. After detection the films were scanned for quantification.
FM55 melanoma cells were cultured in the same way as described in Experiment 1. When reaching a density of 65,000 cells/cm^2 in the dishes, they were treated for 1 h with 0 (control) and 0.05 μM of picropodophyllin and podophyllotoxin, respectively. The cells were then isolated and subjected to immunoprecipitation of the IGF-1R, fibroblast growth factor receptor (FGFR), platelet-derived growth factor receptor (PDGFR), epidermal growth factor receptor (EGFR), insulin receptor (IR) and insulin substrate-1 (IRS-1) using antibodies to respective molecules. IRS-1 is a substrate of IGF-1R, and therefore its phosphorylation is dependent on phosphorylated IGF-1R. Gelelectrophoresis, Western blotting and quantification of the different signals were performed as described above.

[2] = test system: FM55 melanoma cell line; experiment: Cell viability (XTT), FM55; format: cell-based; settings: read-out: EC50 for cell viability
Protocol: (§1) Cell proliferation kit II (Roche Inc.) is based on colorimetric change of the yellow tetrazolium salt XTT in orange formazan dye by the respiratory chain of viable cells (Roehm, N W, et al., J Immunol Methods 142:257-265, 1991). Cells seeded at a concentration of 5000/well in 100 μl medium in a 96-well plate were treated with different drugs in the given concentration. After 24 or 48 h the cells were incubated, according to the manufacturer's protocol, with XTT labelling mixture. After 4 h the formazan dye is quantified using a scanning multiwell spectrophotometer with a 495-nm filter. The absorbance is directly correlated with the number of viable cells. The standard absorbance curve was drawn by means of untreated cells seeded at a concentration of from 1000 to 10 000 cells/well with an increasing rate of 1000 cells/well. All standards and experiments were performed in triplicates.
(§2) 12 different types of cell lines were seeded in 96-well plates (medium volume in a well was 100 μl), at a concentration of 10,000 cells/cm^2 in Minimal Essential Medium supplemented with fetal calf serum. When the cells had reached a concentration of 65,000 cells/cm^2, they were treated with different doses of podophyllotoxin and picropodophyllin for 48 h. Cell viability was then assayed (see above). […]

[3] = test system: MCF-7 breast cancer cell line; experiment: Cell viability (XTT), MCF-7; format: cell-based; settings: Homo sapiens, read-out: EC50 for cell viability
Protocol: as §1, §2

[4] = Local toxicity, subcutaneous osmotic pumps in nude mice; format: in vivo; set-up: key to Local toxicity: effects on skin and subcutaneous tissue: 0: no tissue reaction; *: light tissue reaction with hyperemia and mild inflammation; **: moderate tissue reaction with strong inflammation; ***: strong tissue reaction with necrosis and bleedings; settings: 7 days; for Local tissue reactions: subcutaneous osmotic pump loaded with 0.25 mg
Protocol: Control mice were treated with the solvent. 3-6 animals were treated in each group.
The first set of experiments was carried out to investigate possible local and systemic toxic effects of podophyllotoxin, deoxypodophyllotoxin and picropodophyllin on nude mice. In the first experiment osmotic pumps loaded with either drug-free solvent, podophyllotoxin (0.25 mg), deoxypodophyllotoxin (0.25 mg) or picropodophyllin (0.25 mg) were implanted subcutaneously in the flank region. The drugs are delivered subcutaneously with a constant flow of 0.6 μl/h over 7 days. The volume of the pumps was 100 μl. After 7 days the mice were killed and the skin and subcutaneous tissue adjacent to the outlet of the pumps were analyzed and scored for tissue reactions by an experienced pathologist. There were 3 mice in each group.

[5] = Systemic toxicity, daily intraperitoneal injection in nude mice; settings: for Signs of disease: up to 5 days
Protocol: Four to five-week old pathogen-free nude mice (nu/nu) were used and housed within plastic isolators in a sterile facility. […] Experimental treatments with podophyllotoxin, deoxypodophyllotoxin or picropodophyllin were performed by daily intraperitoneal injections of the compound in 100 μl volume of solvent, composed of a mixture of DMSO and physiological saline (8:2). Control mice were treated with the solvent. 3-6 animals were treated in each group. Animals were monitored three times a week for signs of disease and tumor growth. Tumor mass was estimated using the formula (d^2×D)/2, where d and D represent the small and large diameters of the tumor, respectively. The mice were carefully observed for presence of side effects and were sacrificed at the end of the experiments for histological analysis of the lesions. All experiments were performed according to the ethical guidelines for laboratory animal use, provided by institutional ethical committee.
In the next experiment we analyzed systemic effects of the drugs by injecting 100 μl intraperitoneally of each compound daily over 5 days. Two doses were injected (7 or 28 mg/kg/d) and 3-6 mice were used for each drug and dose. The mice were checked carefully daily for signs of discomfort, diseases and weight loss.

T1 sequence (P00533 25-1210): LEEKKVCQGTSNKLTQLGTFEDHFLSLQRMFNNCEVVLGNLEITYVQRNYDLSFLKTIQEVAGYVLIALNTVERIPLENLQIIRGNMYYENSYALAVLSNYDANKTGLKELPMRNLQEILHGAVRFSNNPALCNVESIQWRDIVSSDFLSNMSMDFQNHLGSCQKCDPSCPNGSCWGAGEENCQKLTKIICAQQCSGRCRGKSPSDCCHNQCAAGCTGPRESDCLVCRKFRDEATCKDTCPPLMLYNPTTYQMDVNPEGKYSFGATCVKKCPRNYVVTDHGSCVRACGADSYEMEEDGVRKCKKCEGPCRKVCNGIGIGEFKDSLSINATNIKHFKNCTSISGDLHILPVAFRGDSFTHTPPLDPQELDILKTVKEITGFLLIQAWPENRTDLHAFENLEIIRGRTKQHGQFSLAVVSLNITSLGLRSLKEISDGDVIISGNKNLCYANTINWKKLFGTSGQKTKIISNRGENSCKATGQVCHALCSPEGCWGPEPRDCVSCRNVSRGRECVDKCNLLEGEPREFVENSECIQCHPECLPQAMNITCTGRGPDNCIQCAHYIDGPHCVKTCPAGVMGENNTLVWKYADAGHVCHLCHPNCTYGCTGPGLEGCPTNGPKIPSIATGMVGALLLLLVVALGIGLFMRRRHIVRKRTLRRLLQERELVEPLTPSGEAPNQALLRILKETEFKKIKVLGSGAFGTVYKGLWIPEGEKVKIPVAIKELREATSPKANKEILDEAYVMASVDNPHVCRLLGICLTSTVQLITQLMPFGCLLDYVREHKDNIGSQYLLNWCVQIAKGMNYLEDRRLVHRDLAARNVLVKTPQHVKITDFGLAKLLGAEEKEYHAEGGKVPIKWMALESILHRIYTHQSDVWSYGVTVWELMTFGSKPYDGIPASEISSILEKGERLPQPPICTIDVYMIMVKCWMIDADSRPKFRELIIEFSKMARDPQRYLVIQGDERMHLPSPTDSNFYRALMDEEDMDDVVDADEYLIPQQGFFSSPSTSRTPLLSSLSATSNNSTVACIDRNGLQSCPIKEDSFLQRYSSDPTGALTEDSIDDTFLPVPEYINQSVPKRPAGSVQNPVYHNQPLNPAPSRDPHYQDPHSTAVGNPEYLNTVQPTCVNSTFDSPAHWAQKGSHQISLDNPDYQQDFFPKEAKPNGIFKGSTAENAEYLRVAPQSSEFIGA

SMILES | Level of phosphorylation in intact cells, substrate EGFR [1] | Local tissue reactions [4] | Surviving mice/Investigated mice ([5]; 7 mg/kg/d i.p., 1 d) | Surviving mice/Investigated mice ([5]; 7 mg/kg/d i.p., 2 d) | Surviving mice/Investigated mice ([5]; 7 mg/kg/d i.p., 3 d) | Surviving mice/Investigated mice ([5]; 28 mg/kg/d i.p., 1 d) | Surviving mice/Investigated mice ([5]; 28 mg/kg/d i.p., 2 d) | also measured
COc1cc([C@@H]2c3cc4c(cc3[C@H](O)[C@H]3COC(=O)[C@@H]23)OCO4)cc(OC)c1OC [Picropodophyllin, picropodophyllin] | 106 % OD | no visible reactions | 3/3 | 3/3 | 3/3 | 6/6 | 6/6 | EC50 ([2]; FM55, 48 h): 70 nM; EC50 ([3]; MCF7, MCF-7, 48 h): 90 nM; Local toxicity: effects on skin and subcutaneous tissue ([4]; subcutaneous osmotic pump, 7 mg/kg/d): 0; Surviving mice/Investigated mice ([5]; 7 mg/kg/d i.p., 4 d): 3/3; Surviving mice/Investigated mice ([5]; 7 mg/kg/d i.p., 5 d): 3/3; Surviving mice/Investigated mice ([5]; 28 mg/kg/d i.p., 3 d): 6/6; Surviving mice/Investigated mice ([5]; 28 mg/kg/d i.p., 4 d): 6/6; Surviving mice/Investigated mice ([5]; 28 mg/kg/d i.p., 5 d): 6/6; Signs of disease ([5]; high dose (28 mg/kg/d) i.p. daily): did not exhibit any evidence of disease; Signs of disease ([5]; low dose (7 mg/kg/d) i.p. daily): did not exhibit any evidence of disease
COc1cc([C@@H]2c3cc4c(cc3[C@H](O)[C@H]3COC(=O)[C@H]23)OCO4)cc(OC)c1OC [Podophyllotoxin, podophyllotoxin] | 107 % OD | severe tissue reactions with necrosis, bleeding and inflammation | 3/3 | 1/3 | 0/3 | 2/6 | 0/6 | EC50 ([2]; 48 h): 40 nM; EC50 ([3]; MCF7, 48 h): 70 nM; Animals dead within 2 days ([5]; high dose (28 mg/kg/d) i.p.): 100%; Animals dead within 2 days ([5]; low dose (7 mg/kg/d) i.p.): 67%
